From patent publication US8470525B2, “Method for analyzing air” (priority 2011, dated 2013)

Legend:
Assay type in all cases: biochemical
[1] = target: T1, acetylcholinesterase enzyme (Homo sapiens, UniProt P22303); assay: Air monitoring device: detection of aerosolized enzymatic substrate by fluorescence after enzyme addition; conditions: Example 7, FIG. 11: indoxyl acetate solution 0.1 mg/ml aerosolized; 4 minute cycles; cycles three and four; clean air amplitude 500
Procedure: Example 7 provides a method of this invention to detect other chemicals in the air. The device in this example was operated continuously in 4 minute cycles. Each cycle consists of a 2 minute second sampling period at a flow rate of 1 liter per minute, 5 second enzyme addition step, a 85 second reading period and a 30 second rinse step. The consumables/reagents consisted of a) 3 mg/ml acetylcholinesterase enzyme solution in buffer and b) 100 mM buffer at pH 7.0. This example used a polyethylene disk with a pore size of 15-45 um and a thickness of 1.6 mm as the impactor disk. The enzyme aerosol was generated using 5×500 ms pulses every second for 5 seconds total. The rinse step at conclusion of the cycle was accomplished by continuously aerosolizing buffer for about 30 seconds.
Specifically, indoxyl acetate solution was aerosolized into a plastic test chamber at a concentration of 0.1 mg/ml. […] The device indicated the presence of the target protein by an amplitude increase to at least 3,000 fluorescent units in cycles three and four compared to an amplitude of 500 in cycles one and two during the time clean air was sampled.

[2] = Air monitoring device: detection of aerosolized enzyme protein by fluorescence from indoxyl acetate substrate; conditions: Example 6, FIG. 10: enzyme solution 3 mg/ml aerosolized; 3 minute cycles; cycles four, five and six; clean air amplitude 0
Procedure: Example 6 provides a method of this invention for the detection of a protein in the air. The device in this example was operated continuously in 3 minute cycles. Each cycle consists of a 30 second sampling period at a flow rate of 1 liter per minute, a 5 second substrate addition step, a 85 second reading period and a 60 second rinse step. The consumables/reagents consisted of a) 12.5 mg/ml indoxyl acetate substrate solution in isopropyl alcohol (IPA), diluted in buffer 100 fold and b) 100 mM buffer at pH 7.0. This example used a polyethylene disk with a pore size of 15-45 um and a thickness of 1.6 mm as the impactor disk. The substrate aerosol was generated using 5×500 ms pulses every second for 5 seconds total. The rinse step at conclusion of the cycle was accomplished by continuously aerosolizing buffer for about 60 seconds.
Specifically, acetylcholinesterase enzyme solution was aerosolized into a plastic test chamber at a concentration of 3 mg/ml. The sampled air was contaminated with enzyme two times at intervals indicated by solid triangles (beginning) and white triangles (end). As set forth in FIG. 10, the device indicated the presence of the target protein by an amplitude increase to at least 2,000 fluorescent units in cycles four, five and six compared to an amplitude of 0 in cycles one, two and three during the time clean air was sampled.

[3] = target: T1, acetylcholinesterase enzyme; assay: Enzyme-based air monitoring device: detection of cholinesterase inhibitor in air by loss of acetylcholinesterase/indoxyl acetate fluorescence signal; conditions: Example 4, FIG. 8: aerosol from 2.5 ppm paraoxon solution; 4 minute cycles; polyethylene disk 15-45 um; clean-air cycle around 14,000
Procedure: In this embodiment of the invention, the device and method operates in repetitive cycles ranging from 30 seconds to 10 minutes. […] The cycle shown in FIG. 2 took 5 minutes for completion. The enzyme and substrate addition took 5 seconds, the sampling time took 115 seconds, the reading took 85 seconds and was concluded by the alarm status update at the end which requires only a fraction of a second, and the rinse took 90 seconds. Each cycle concludes with the rinse step where components of the reaction are rinsed off the surface of the collection matrix and preferably from the reaction zone and the surface of the collection matrix, in order to set the stage for a new sampling cycle.
FIGS. 3a and 3b illustrate the steps of one 5 minute cycle with no detection event in more detail. […] Particles, aerosols and vapor from the environment are collected on the impactor disk or surface of the collection matrix. During this step one nebulizer is activated adding aerosolized enzyme visualized in FIGS. 3a and 3b by clam shaped symbols. The enzyme is being accumulated on the impactor disk/surface of the collection matrix. […] During the next step 4) 85 seconds reading, the catalytic reaction of the enzyme substrate complex is monitored with an optical system. […] During the reading period, the air sampling pump is typically switched off. […]

T1 sequence (P22303 32-614, species assumed): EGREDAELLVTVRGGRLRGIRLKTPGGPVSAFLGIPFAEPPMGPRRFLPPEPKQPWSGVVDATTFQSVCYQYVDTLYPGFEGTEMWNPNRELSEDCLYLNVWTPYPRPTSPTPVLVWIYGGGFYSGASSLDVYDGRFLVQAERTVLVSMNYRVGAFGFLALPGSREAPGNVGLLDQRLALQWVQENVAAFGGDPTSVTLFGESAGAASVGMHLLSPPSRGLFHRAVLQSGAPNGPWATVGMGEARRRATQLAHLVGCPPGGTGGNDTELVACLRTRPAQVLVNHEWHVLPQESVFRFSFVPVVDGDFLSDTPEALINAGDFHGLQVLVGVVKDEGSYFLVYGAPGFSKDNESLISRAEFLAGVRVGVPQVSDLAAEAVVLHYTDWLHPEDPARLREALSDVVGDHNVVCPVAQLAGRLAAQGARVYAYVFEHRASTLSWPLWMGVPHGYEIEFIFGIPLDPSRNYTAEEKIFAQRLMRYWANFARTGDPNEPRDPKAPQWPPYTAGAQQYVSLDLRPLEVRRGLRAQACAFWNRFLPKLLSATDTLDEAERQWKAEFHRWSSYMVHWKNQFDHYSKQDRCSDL

Which amplitude increase [1] does the source give for indoxyl acetate here?
The amplitude increase was “at least 3,000 fluorescent units”.

With acetylcholinesterase as the molecule, how does the amplitude increase [2] read?
The amplitude increase was “at least 2,000 fluorescent units”.

For `CCOP(=O)(OCC)Oc1ccc([N+](=O)[O-])cc1` [paraoxon], which signal amplitude [3] is on record?
The signal amplitude was “around 4,000 fluorescent units”.
